# Assay results published in patent publication US20240117303A1, “METHODS AND COMPOSITIONS FOR GENERATING HUMAN MIDBRAIN DOPAMINERGIC NEURONS FROM NEURAL PROGENITOR CELLS” (Trailhead Biosystems Inc., priority 2022, published 2024).
# “Also recorded” adds a separate entry of the source.
# Columns and labels:
# [1] = tested on: human pluripotent stem cells; experiment: HD-DoE 13-factor experiment for stage 1 recipe, gene expression modeled after 3-day treatment; dynamic profile and factor criticality analysis; assay type: cell-based
# Summary of the method: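 Human pluripotent stem cells given 13-factor effector combinations (e.g. LDN193189, CHIR99021, PD0325901) for 3 days; expression of 53 preselected genes modeled, focusing on OTX2, DMBX1, FOXA2, LMX1A and GBX2. Factor criticality assessed by removing each of five finalized factors and comparing with all five present.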
# [2] = tested on: stage 1 neural stem cells; experiment: HD-DoE 12-factor experiment for stage 2 recipe (first model, FIG. 5-7, 12); assay type: cell-based, human; details: for factor contribution: positive impact
# Text: To further guide the differentiation of midbrain-committed neural stem cells to neural progenitor cells at stage 2, we performed an additional HD-DoE experiment. We thereby obtained additional gene regulatory models that were used for preparation of differentiation protocol. The basis of this was a 12-factor HD-DoE experiment with focus on initiation of differentiation of cells toward midbrain neural progenitor cells for an additional 3 days after termination of stage 1 treatment. Here, we focused on expression of LMX1A and FOXA2 in neural progenitor cells with low to zero expression of GBX2. LMX1A had significant high expression level in the model with value of 47888. Therefore, we used optimization setting for this gene to identify the positive factors. The factors in this experiment included SC79, MK2206, ZM336372, PD0325901, CHIR99021, A 83-01, TTNPB, AGN193109, GW3965, SR9243, Purmorphamine and GSI-XX.
# To assess the impact of elimination of each validated factor, we used dynamic profile analysis and compared the expression level of genes of interest in absence of each finalized factor while others are present.
# In the stage 2 recipe, each of the six finalized factors were removed while the other five factors were present and the expression levels of FOXA2, LMX1A and GBX2 were assessed, compared to the levels in the presence of all factors. According to the first experiment model, the absence of TTNPB lead to a rise of GBX2 expression, while the value of FOXA2 and LMX1A reduced drastically from 10,000 to 0 and 30,000 to 15,000, respectively. The absence of A 83-01 reduced the expression of FOXA2 from 10,000 to 7000, however, as expected, the value of LMX1A increased from 30,000 to 40,000. […] According to the second experiment model, the absence of BMP7 and MK2206 both reduced the level of FOXA2 while increasing the value of LMX1A, with BMP7 as the main effector that led to 0 expression of FOXA2.
# stage 3 immature neurons = experiment: HD-DoE 8-factor experiment for stage 4 recipe (FIG. 27, 28, 31); assay type: cell-based, human
# Summary of the method: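 Stage 3 cells treated 4 days with combinatorial matrices including CHIR99021, BDNF, GDNF, Rosiglitazone, GW7647, DBZ and heparin, then gene expression (NR4A2, PITX3, TH) measured. Dropout tests removed each of six finalized factors singly, comparing NR4A2 and PITX3 against the full set.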
# [3] = dynamic profile / model, 12 effectors
compound,measurement,setting,value
Cc1c[nH]c(-c2cnc(NCCNc3ccc(C#N)cn3)nc2-c2ccc(Cl)cc2Cl)n1 [CHIR99021],impact on expression of FOXA2,"[1]; dynamic profile, 13 effectors",positive impact
same,impact on expression of OTX2,"[1]; dynamic profile, 13 effectors",positive impact
same,factor contribution,"[1]; model optimized for maximum expression of FOXA2, positive effect",15.6
same,factor contribution,"[1]; model optimized for maximum expression of OTX2, positive impact, 3-day treatment",13.5
same,expression level of LMX1A in absence of the factor,"[1]; stage 1 recipe, other four factors present, 300 with all five factors",reduced
same,expression level of FOXA2 in absence of the factor,"[1]; stage 1 recipe, other four factors present, 600 with all five factors",reduced
same,expression level of DMBX1 in absence of the factor,"[1]; stage 1 recipe, other four factors present, 3000 with all five factors",reduced
same,expression level of OTX2 in absence of the factor,"[1]; stage 1 recipe, other four factors present, 12000 with all five factors",reduced
same,impact on expression of FOXA2,[2]; [3],reduces
same,impact on expression of LMX1A,[2]; [3],positive effect; also recorded: positive impact
same,impact on expression level of GBX2,"[2]; dynamic profile, 12 effectors",increases
same,factor contribution,[2]; model optimized for LMX1A,8.3
same,factor contribution,[2]; model optimized for maximum expression of FOXA2,10.7
same,impact on expression level of PITX3,"stage 3 immature neurons; dynamic profile, 8 effectors",did not have a meaningful effect
same,factor contribution,"stage 3 immature neurons; model maximized for NR4A2, negative impact",20.7
